Several values for one entry are separate records, joined by “and”; a condition that tells them apart may be missing. Identical values can stand only once.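 Following 48 hours of exposure in 96-well plates, responses at five concentrations were used to interpolate endpoints linearly. Abbreviation: GI50, concentration required for 50% inhibition of growth. The concentration for full growth arrest is given as TGI.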 Where a SMILES comes first, the peptide text is derived from it. [ ]: non-standard residue; d: D form. The star is where a group is joined. ξ: configuration not given here. ξF = NC(Cc1ccccc1)C(=O)O; Cbz = O=C(OCc1ccccc1)*; Aib = CC(C)(N)C(=O)O
Columns and labels:
Assay in all cases: NCI anticancer screen, dose series, 48 h
[1] = test system: UACC-257 melanoma
[2] = test system: MDA-MB-435
[3] = test system: HCT-15 colon
[4] = test system: SW-620 colon
[5] = test system: SNB-19 CNS
[6] = test system: NCI/ADR-RES ovarian
[7] = test system: PC-3 prostate
[8] = test system: SK-OV-3 ovarian
[9] = test system: SNB-75 CNS
[10] = test system: HS 578T breast

SMILES | TGI [1] | TGI [2] | TGI [3] | TGI [4] | TGI [5] | TGI [6] | TGI [7] | TGI [8] | TGI [9] | TGI [10] | GI50 [1] | GI50 [2] | GI50 [8] | GI50 [3] | GI50 [4] | GI50 [5] | GI50 [9] | GI50 [6] | GI50 [10] | GI50 [7]
CCOC(=O)CNC(=O)C(Cc1ccccc1)NC(=O)C(C)(C)NC(=O)OCc1ccccc1 (configuration not stated) (Cbz-[Aib]-[ξF]-Gly-OEt) | > 100 µM | > 100 µM | > 100 µM | > 100 µM | > 100 µM | > 100 µM | > 100 µM | – | – | – | – | – | – | – | – | – | – | – | – | –
CN(Cc1cn(O)c2nc(=N)nc(N)c-2n1)c1ccc(C(=O)NC23CC4CC(CC(C4)C2)C3)cc1 | > 100 µM | > 100 µM | > 100 µM | > 100 µM | > 100 µM | > 100 µM | > 100 µM | > 100 µM | 76.2 µM | 40.4 µM | – | – | – | – | – | – | – | – | – | –
CC1(CO)COS(=O)OC1 (configuration not stated) | > 100 µM | > 100 µM | > 100 µM | > 100 µM | > 100 µM | > 100 µM | > 100 µM | > 100 µM | > 100 µM | > 100 µM | – | – | – | – | – | – | – | – | – | –
COc1cc(/C=N/c2nc3cc4sc(/N=C/c5cc(OC)c(OC)c(OC)c5)nc4cc3s2)cc(OC)c1OC | > 100 µM | > 100 µM | > 100 µM | > 100 µM | > 100 µM | > 100 µM | > 100 µM | > 100 µM | > 100 µM | > 100 µM | – | – | – | – | – | – | – | – | – | –
OCC(O)CNc1ncnc2ccccc12 (configuration not stated) | > 100 µM | > 100 µM | > 100 µM | > 100 µM | > 100 µM | > 100 µM | > 100 µM | > 100 µM | > 100 µM | > 100 µM | – | – | – | – | – | – | – | – | – | –
COc1ccc(-c2nc3c(nc2-c2ccc(OC)cc2)C(N)=NS(=O)(=O)N3)cc1 | > 100 µM | – | > 100 µM | > 100 µM | > 100 µM | – | – | > 100 µM | > 100 µM | – | – | – | – | – | – | – | – | – | – | –
CC1C(=O)CC(c2cccs2)N(N=O)C1c1cccs1 (configuration not stated) | > 100 µM | – | > 100 µM | > 100 µM | > 100 µM | > 100 µM | – | > 81.2 µM | > 74 µM | – | – | – | – | – | – | – | – | – | – | –
O=C1c2cccnc2C(=O)c2c1c(C(=O)OCCN1CCCCC1)c1ccccn21 | 0.395 µM | 0.829 µM | 0.984 µM | 0.362 µM | 0.498 µM | 1.07 µM | 9.59 µM | 0.051 µM | 0.188 µM | 0.376 µM | 0.0878 µM | 0.0804 µM | 0.0124 µM | 0.0416 µM | 0.0187 µM | 0.013 µM | 0.0189 µM | 0.0331 µM | 0.0723 µM | 0.16 µM
CCN(CC)CC[n+]1ccc2c(C)c3[nH]c4ccc(O)cc4c3c(C)c2c1 | 43.9 µM and 91.6 µM | 23.1 µM | 143 µM | 93.1 µM and 88.3 µM | 8.76 µM and 10.8 µM | 79.6 µM and 102 µM | 31.8 µM | 66.9 µM and 58.4 µM | 7.51 µM and 2.83 µM | 15.8 µM | 24.2 µM | – | 5.94 µM | – | – | 0.634 µM | 0.523 µM | 21.7 µM | – | –
S=c1c2[nH]cnc2ncn1CCSC1=NC=NC2=NC=NC21 (configuration not stated) | > 100 µM | > 100 µM | > 100 µM | > 100 µM | > 100 µM | > 100 µM | > 100 µM | > 100 µM | > 100 µM | > 100 µM | – | – | – | – | – | – | – | – | – | –
CC(C)(C)c1ccc2c(c1)C#Cc1cc(C(C)(C)C)ccc1OCCCO2 | > 100 µM | > 100 µM | > 100 µM | > 100 µM | > 100 µM | > 100 µM | > 100 µM | – | – | > 100 µM | – | – | – | – | – | – | – | – | – | –
CNC1Cc2c[nH]c3cccc(c23)C12C=C(C)C(=O)O2 (configuration not stated) | > 100 µM | > 100 µM | > 100 µM | > 100 µM | > 100 µM | > 100 µM | > 100 µM | > 100 µM | > 100 µM | > 100 µM | – | – | – | – | – | – | – | – | – | –
NC(CCOCCP(=O)(O)CCC1C=CC=CC1)C(=O)O (configuration not stated) | > 100 µM | > 100 µM | > 100 µM | > 100 µM | > 100 µM | > 100 µM | > 100 µM | > 100 µM | > 100 µM | > 100 µM | – | – | – | – | – | – | – | – | – | –
CCOC(=O)CCC(C(=O)OCC)n1nc2ccc(Nc3c(C)[n+]([O-])c4cc(F)c(OCC)cc4[n+]3[O-])cc2n1 (configuration not stated) | > 100 µM | > 100 µM | > 100 µM | > 100 µM | > 100 µM | > 100 µM | > 100 µM | > 100 µM | 32.9 µM | 90.7 µM | – | – | – | – | – | – | – | – | – | –
CSc1nc(CO)c(CO)n1C | > 100 µM | – | > 100 µM | > 100 µM | > 100 µM | > 100 µM | – | > 100 µM | > 100 µM | – | – | – | – | – | – | – | – | – | – | –
Cc1[nH]c(=O)[nH]c(=O)c1/C=C/C(=O)NC(CO)CS(=O)CS(C)=O (configuration not stated) | 151 µM | – | 408 µM | 409 µM | 77.9 µM | 263 µM | – | 169 µM | 38.8 µM | – | – | – | – | – | – | – | – | – | – | –

— PubChem BioAssay (NCI)
